# Reference: ChEMBL document CHEMBL1158159, “Design, synthesis, and structure-affinity relationship studies in NK1 receptor ligands based on azole-fused quinolinecarboxamide moieties” (Bioorg Med Chem, 2008)
# Molecular target: Substance-P receptor (Homo sapiens, UniProt P25103)
# Test: Displacement of [125I]BH-SP to human recombinant NK1 receptor in CHO cells
# Format: cell-based
# Sequence of Substance-P receptor (P25103 whole entry): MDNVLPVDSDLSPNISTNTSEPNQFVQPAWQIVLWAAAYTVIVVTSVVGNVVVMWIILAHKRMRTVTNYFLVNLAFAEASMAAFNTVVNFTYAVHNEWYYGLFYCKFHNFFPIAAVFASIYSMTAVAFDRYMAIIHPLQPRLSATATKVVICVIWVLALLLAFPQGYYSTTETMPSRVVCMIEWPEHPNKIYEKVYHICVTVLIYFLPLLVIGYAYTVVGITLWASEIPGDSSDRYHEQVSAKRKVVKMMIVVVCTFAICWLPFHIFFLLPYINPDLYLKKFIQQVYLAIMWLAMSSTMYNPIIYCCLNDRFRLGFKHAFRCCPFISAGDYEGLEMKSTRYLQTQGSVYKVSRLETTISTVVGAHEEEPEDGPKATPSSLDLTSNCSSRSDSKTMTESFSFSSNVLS
row,SMILES,IC50 [nM]
1,CN(Cc1cc(C(F)(F)F)cc(C(F)(F)F)c1)C(=O)c1c(-c2ccccc2)c2ccccc2n2ccnc12,38
2,Cc1ccc(-c2c(C(=O)NCc3cc(C(F)(F)F)cc(C(F)(F)F)c3)c3nnnn3c3ccccc23)cc1,401
3,O=C(NCc1cc(C(F)(F)F)cc(C(F)(F)F)c1)c1c(-c2ccccc2)c2ccccc2n2cncc12,146
4,Cc1ccc(-c2c(C(=O)N(C)Cc3cc(C(F)(F)F)cc(C(F)(F)F)c3)c3nnnn3c3ccccc23)cc1,55
5,O=C(NCc1cc(C(F)(F)F)cc(C(F)(F)F)c1)c1c(-c2ccccc2)c2ccccc2n2cnnc12,542
6,O=C(NCc1cc(C(F)(F)F)cc(C(F)(F)F)c1)c1c(-c2ccccc2)c2ccccc2n2ccnc12,1230
7,COc1ccccc1CNC(=O)c1c(-c2ccccc2)c2ccccc2n2nnnc12,2750
8,COc1cc(CNC(=O)c2c(-c3ccccc3)c3ccccc3n3nnnc23)cc(OC)c1,780
9,O=C(NCc1cc(C(F)(F)F)cc(C(F)(F)F)c1)c1c(-c2ccccc2)c2ccccc2n2nnnc12,311
10,O=C(NCc1cc(C(F)(F)F)cc(C(F)(F)F)c1)c1c(-c2ccccc2)c2ccccc2n2cccc12,390
11,O=C(NCc1cc(C(F)(F)F)cc(C(F)(F)F)c1)c1c(-c2ccc(F)cc2)c2ccccc2n2nnnc12,235

# Now those with a lower IC50, led by results:
row,IC50 [nM],SMILES
1,36,CN(Cc1cc(C(F)(F)F)cc(C(F)(F)F)c1)C(=O)c1c(-c2ccccc2)c2ccccc2n2cccc12
2,26,CN(Cc1cc(C(F)(F)F)cc(C(F)(F)F)c1)C(=O)c1c(-c2ccccc2)c2ccccc2n2nnnc12
3,21,CN(Cc1cc(C(F)(F)F)cc(C(F)(F)F)c1)C(=O)c1c(-c2ccc(F)cc2)c2ccccc2n2nnnc12
4,9,CN(Cc1cc(C(F)(F)F)cc(C(F)(F)F)c1)C(=O)c1c(-c2ccccc2)c2ccccc2n2cnnc12
5,4.3,CN(Cc1cc(C(F)(F)F)cc(C(F)(F)F)c1)C(=O)c1c(-c2ccccc2)c2ccccc2n2cncc12
